ChEMBL document CHEMBL1151871, “SAR around (l)-S-adenosyl-l-homocysteine, an inhibitor of human DNA methyltransferase (DNMT) enzymes” (Bioorg Med Chem Lett, 2009)
pIC50: −log10 of the molar value. Calls of active or inactive are those of the source. The rule behind the calls is not given here.

Tests used:
[1] = target: DNA (cytosine-5)-methyltransferase 1 (Homo sapiens, UniProt P26358); experiment: Inhibition of human recombinant DNMT1 expressed in baculovirus infected high five insect cells
[2] = target: T1, DNA (cytosine-5)-methyltransferase 3B (Homo sapiens, UniProt Q9UBC3); experiment: Inhibition of human recombinant DNMT3b2 expressed in baculovirus infected high five insect cells at 45 uM
[3] = target: T1, DNA (cytosine-5)-methyltransferase 3B; experiment: biochemical

DNA (cytosine-5)-methyltransferase 1, sequence (P26358 whole entry): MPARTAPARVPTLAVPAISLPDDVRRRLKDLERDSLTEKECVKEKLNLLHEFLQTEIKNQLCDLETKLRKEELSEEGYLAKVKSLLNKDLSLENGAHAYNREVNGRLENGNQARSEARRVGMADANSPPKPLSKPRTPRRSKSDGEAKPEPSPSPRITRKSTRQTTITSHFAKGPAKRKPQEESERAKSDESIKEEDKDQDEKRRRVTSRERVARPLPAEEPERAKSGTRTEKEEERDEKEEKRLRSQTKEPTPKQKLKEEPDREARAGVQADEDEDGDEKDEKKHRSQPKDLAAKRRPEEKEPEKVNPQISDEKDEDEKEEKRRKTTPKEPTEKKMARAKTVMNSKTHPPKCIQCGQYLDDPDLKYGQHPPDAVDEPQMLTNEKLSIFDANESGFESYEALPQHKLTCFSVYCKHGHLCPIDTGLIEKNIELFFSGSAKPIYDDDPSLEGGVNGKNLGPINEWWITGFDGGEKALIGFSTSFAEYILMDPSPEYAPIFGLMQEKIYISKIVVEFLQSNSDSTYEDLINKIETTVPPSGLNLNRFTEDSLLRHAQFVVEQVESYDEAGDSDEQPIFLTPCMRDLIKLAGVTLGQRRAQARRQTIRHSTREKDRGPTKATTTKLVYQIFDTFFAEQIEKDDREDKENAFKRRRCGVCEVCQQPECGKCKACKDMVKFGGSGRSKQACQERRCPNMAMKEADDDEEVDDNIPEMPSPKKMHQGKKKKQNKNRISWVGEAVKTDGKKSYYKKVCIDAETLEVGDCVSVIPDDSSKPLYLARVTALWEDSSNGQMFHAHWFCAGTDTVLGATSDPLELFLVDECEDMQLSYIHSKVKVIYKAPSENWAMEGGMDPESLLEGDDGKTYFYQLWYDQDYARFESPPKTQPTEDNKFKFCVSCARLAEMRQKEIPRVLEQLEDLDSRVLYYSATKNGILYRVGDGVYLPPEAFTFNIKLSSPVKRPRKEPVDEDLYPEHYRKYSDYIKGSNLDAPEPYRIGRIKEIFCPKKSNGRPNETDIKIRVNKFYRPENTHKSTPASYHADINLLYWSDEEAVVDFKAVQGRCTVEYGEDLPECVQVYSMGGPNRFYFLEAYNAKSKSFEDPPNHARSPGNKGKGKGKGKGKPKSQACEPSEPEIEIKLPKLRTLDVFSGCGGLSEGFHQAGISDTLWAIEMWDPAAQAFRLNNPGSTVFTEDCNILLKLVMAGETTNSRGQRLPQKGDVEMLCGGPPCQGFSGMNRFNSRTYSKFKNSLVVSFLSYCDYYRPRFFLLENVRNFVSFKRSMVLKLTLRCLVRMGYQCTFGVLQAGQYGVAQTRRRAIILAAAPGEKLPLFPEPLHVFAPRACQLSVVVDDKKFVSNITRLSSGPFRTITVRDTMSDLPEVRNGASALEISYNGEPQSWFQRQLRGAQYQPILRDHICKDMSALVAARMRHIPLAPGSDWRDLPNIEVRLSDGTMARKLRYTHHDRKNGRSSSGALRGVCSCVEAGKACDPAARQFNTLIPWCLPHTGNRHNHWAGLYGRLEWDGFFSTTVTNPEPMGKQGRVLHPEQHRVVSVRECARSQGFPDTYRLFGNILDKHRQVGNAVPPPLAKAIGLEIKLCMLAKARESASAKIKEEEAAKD

SMILES | pIC50 [1] | inhibition [2] | pIC50 [3]
Nc1ncnc2c1nnn2[C@@H]1O[C@H](CSCCC(N)C(=O)O)[C@@H](O)[C@H]1O (some centres undefined) | 5.10 | – | –
COc1nc(N)c2ncn([C@@H]3O[C@H](CSCCC(N)C(=O)O)[C@@H](O)[C@H]3O)c2n1 (some centres undefined) | 4.12 | inactive | –
NC(CCSC[C@H]1O[C@@H](n2cnc3c(NCc4ccccc4)ncnc32)[C@H](O)[C@@H]1O)C(=O)O (some centres undefined) | 4.21 | – | 6.00
N[C@@H](CCSC[C@H]1O[C@@H](n2cnc3c(=O)[nH]cnc32)[C@H](O)[C@@H]1O)C(=O)O | – | – | < 3.00
Nc1ncnc2c1ncn2[C@@H]1O[C@H](CSCC[C@H](N)C(=O)O)[C@@H](O)[C@H]1O (racemic) [S-ADENOSYLHOMOCYSTEINE] | – | – | 6.52
CSc1nc(N)c2ncn([C@@H]3O[C@H](CSCCC(N)C(=O)O)[C@@H](O)[C@H]3O)c2n1 (some centres undefined) | 3.67 | – | 3.30
